The source of these data is patent US6256527A, “Method for determining oxygen concentration” (Nycomed Imaging AS, priority 1995, dated 2001).

Common to all, as to type: physicochemical
Data set [1] is described as follows: ESR linewidth of trityl radicals (synthesis examples). To be noted: 200 G, singlet.
Data set [2] can be described thus: Overhauser enhancement of trityl radicals (synthesis examples).
Data set [3] can be described thus: Stability measurements: half life without exclusion of air.
A short description of data set [4]: DNP (Overhauser) enhancement and DNP-curve relaxivity at infinite concentration and power. As to conditions: water. The source says: The calibration data are generated by determining Overhauser enhancement values for the radical in the selected body fluid, at the selected temperature and at a range of oxygen (and preferably also radical) concentrations. The intrinsic esr relaxation times for the radical can be determined, under the same conditions, using a conventional esr spectrometer equipped with a temperature controller, with oxygen concentration being determined using the method of Ravin et al J. Appl. Physiol. 18:784-790(1964), a method known to produce accurate and reproducible results.
(§1) The following four water soluble, single ESR line trityls were investigated by NMRD, Dynamic Nuclear Polarisation (DNP) and ESR (Examples 1-4).
(§2) The relaxivity and DNP enhancement data were measured in water, plasma and blood at 23° C. and 37° C. The results are set out in Tables 1 and 2.

Data set [5] in a line: Electron spin relaxation rates (radical concentration dependent) from CW ESR spectra and DNP data. To be noted: water (isotonic saline). Here is the method:
as §1
Electron spin relaxation rates were measured by analysis of CW ESR spectra and DNP data at 23° C. and 37° C. in water, isotonic saline, plasma and blood for the deuterated hydroxy trityl and in water and isotonic saline for the perdeuterated and symmetric trityl.

A short description of data set [6]: Relaxivity from NMRD profiles in water, plasma and blood. To be noted: water. Here is the method: as §1, §2
Data set [7] is described as follows: Oximetric calibration by X-band ESR (9 GHz), oxygen broadening. As to conditions: plasma, 37° C., X-band 9 GHz. Here is the method:
Oximetric calibrations were made for the perdeuterated trityl and the non-deuterated hydroxy trityl in water and plasma at 37° C. with ESR in the X-band at 9 GHz. The experiment was performed on a Varian X-band spectrometer with temperature controller. A thermocouple was placed near the microwave cavity for accurate determination of the temperature. The samples were placed in thin wall teflon capillaries for rapid equilibration with a flowing gas mixture. A Sensormedics Oxygen Analyzer OM-11 was used to determine the oxygen percentage in the flowing gas. The gas pressure for temperature control and oxygenation was maintained at 20 psi. The linewidth and the saturation of the electron spin resonance was measured. Fremys salt was chosen as a B1 calibration standard and a conversion factor of 38.6±0.2 mG/mW was obtained.
The results are shown in FIGS. 2 and 3 which give the linewidth as a function of oxygen concentration. The oxygen broadening of the perdeuterated trityl in plasma at 37° C. is 583 mG/mMo2 .

Substance “Bis-(8-ethoxycarbonyl-2,2,6,6-tetramethylbenzo[1,2-d: 4,5-d']-bis(1,3)dithiole-4-yl)-mono-(8-ethoxycarbonyl-2,2,6,6-tetramethylbenzo[1,2-d:4,5-d']-bis(1,3)dioxol-4-yl)methyl [Example 19]” yielded an ESR Line width in data set [1] (THF) of 325 mg. Also, in data set [2] (THF, 2.1 mM, 4 W microwave power), the Overhauser enhancement stood at 156. The substance also came in with a Half life in data set [3] (in acetonitrile without exclusion of air) of 83.33 days.
The substance “Bis(8-carboxy-2,2,6,6-tetra(hydroxymethyl)benzo[2-d: 4,5-d']bis(1,3)dithiol-4-yl)-mono(8-carboxy-2,2,6,6-tetramethylbenzo[2-d: 4,5-d']-bis(1,3)dioxol-4-yl)) methyl sodium salt [Example 27]” returned an ESR Line width in data set [1] (3.4 mM in H2 O) of 120 mg. Also, the Overhauser enhancement in data set [2] (3.4 mM in H2 O, 5 W microwave power) amounted to 164. Moreover, the Half life in data set [3] (in water without exclusion of air) was 5 days.
As for “Bis-(8-sodium carboxylate-2,2,6,6-tetrakis-(^2 H3 methyl)-benzo[1,2-d:4,5-d']-bis(1,3)-dithiole-4-yl)-mono-(8-sodium carboxylate-2,2,6,6-tetrakis-(^2 H3 -methyl)-benzo[1,2-d:4,5-d']-bis(1,3)-dioxole-4-yl) methyl [perdeuterated trityl]”, the “A. (enhancement at infinite concentration and power)” value in data set [4] worked out at 267. Moreover, the “2(3γe T1e)^-1, concentration dependent relaxation rate (peak-to-peak)” value came out at 10.6 ± 0.8 mg/mM in data set [5] (23° C.) and 12.9 ± 0.3 mg/mM in data set [5] (37° C.). Moreover, the “2(3γe T2e)^-1, concentration dependent relaxation rate (peak-to-peak)” value was found to be 24.3 ± 0.8 mg/mM in data set [5] (23° C.) and 28.2 ± 1.2 mg/mM in data set [5] (37° C.). In addition, the Relaxivity stood at 0.19 mM⁻¹ s⁻¹ in data set [6] (23° C.) and 0.14 mM⁻¹ s⁻¹ in data set [6] (37° C.). The substance further gave an oxygen broadening in data set [7] of 583 mG/mMo2.
